Assay: xn = mol fraction of the nth substance listed
Conditions: 100 kPa

CN1CCCC1=O + CCCC[n+]1ccn(C)c1.F[B-](F)(F)F
speed of sound (298.15 K, x1 = 1): 1543.8 m/s | speed of sound (303.15 K, x1 = 1): 1524.3 m/s | speed of sound (308.15 K, x1 = 1): 1505 m/s | speed of sound (313.15 K, x1 = 1): 1485.7 m/s | speed of sound (318.15 K, x1 = 1): 1466.7 m/s

CCCC[n+]1ccn(C)c1.F[B-](F)(F)F + CN1CCCC1=O
speed of sound (298.15 K, x2 = 0.4422): 1562.8 m/s | speed of sound (298.15 K, x2 = 0.5097): 1562 m/s | speed of sound (298.15 K, x2 = 0.6155): 1561.2 m/s | speed of sound (298.15 K, x2 = 0.8025): 1559.1 m/s | speed of sound (298.15 K, x2 = 0.9025): 1554.8 m/s | speed of sound (303.15 K, x2 = 0.108): 1552.4 m/s | speed of sound (303.15 K, x2 = 0.2114): 1552.2 m/s | speed of sound (303.15 K, x2 = 0.3061): 1551.5 m/s | speed of sound (303.15 K, x2 = 0.4422): 1549.9 m/s | speed of sound (303.15 K, x2 = 0.5097): 1548.1 m/s | speed of sound (303.15 K, x2 = 0.7054): 1544.1 m/s | speed of sound (303.15 K, x2 = 0.9025): 1536.3 m/s | speed of sound (308.15 K, x2 = 0.2114): 1539.8 m/s | speed of sound (308.15 K, x2 = 0.4422): 1536.6 m/s | speed of sound (308.15 K, x2 = 0.5097): 1534.6 m/s | speed of sound (308.15 K, x2 = 0.6155): 1531.5 m/s | speed of sound (308.15 K, x2 = 0.8025): 1524.7 m/s | speed of sound (308.15 K, x2 = 0.9025): 1518 m/s | speed of sound (313.15 K, x2 = 0.108): 1528.3 m/s | speed of sound (313.15 K, x2 = 0.4422): 1522.7 m/s | speed of sound (313.15 K, x2 = 0.5097): 1520.8 m/s | speed of sound (313.15 K, x2 = 0.8025): 1507 m/s | speed of sound (318.15 K, x2 = 0.108): 1516.4 m/s | speed of sound (318.15 K, x2 = 0.3061): 1512.8 m/s | speed of sound (318.15 K, x2 = 0.4422): 1510.1 m/s | speed of sound (318.15 K, x2 = 0.5097): 1506.8 m/s | speed of sound (318.15 K, x2 = 0.6155): 1501.7 m/s | speed of sound (318.15 K, x2 = 0.7054): 1496.4 m/s | speed of sound (318.15 K, x2 = 0.8025): 1490.4 m/s | speed of sound (318.15 K, x2 = 0.9025): 1482.5 m/s | speed of sound (323.15 K, x2 = 0.2114): 1502.8 m/s | speed of sound (323.15 K, x2 = 0.3061): 1499.9 m/s | speed of sound (323.15 K, x2 = 0.4422): 1496.7 m/s | speed of sound (323.15 K, x2 = 0.5097): 1492.4 m/s | speed of sound (323.15 K, x2 = 0.6155): 1486.5 m/s | speed of sound (323.15 K, x2 = 0.7054): 1480.7 m/s | speed of sound (323.15 K, x2 = 0.8025): 1473.2 m/s | speed of sound (323.15 K, x2 = 0.9025): 1464.1 m/s

Source: a compilation of properties of binary mixtures (doi:10.1016/j.molliq.2015.08.019)
